Two sequences from article PMC11969024, “Development of chemokine network inhibitors using combinatorial saturation mutagenesis” (Communications Biology, 2025) can be followed below.

The subject of this experiment is panel of 22 biotinylated chemokines. Nature of the experiment: Saturation (NNK) mutagenesis phage-display selection against biotinylated chemokines, enrichment by NGS. It counts as binding, human. Conditions: two-sided Dunnett's test; for log2E compared to parental HD2, CXnC chemokines: 7 CXnC chemokines. The text has this:
81-mer mutant oligonucleotides replacing NNK at each of the 16 peptide encoding residues were designed with the sequence arms 5’-[…], and […]-3’ at respective ends to enable amplification and cloning. Oligonucleotides (Genscript) were individually amplified and cloned into plasmid prSTOP4Nsi (described in[37]). prSTOP4Nsi was amplified using primers (Sigma): […]
Oligonucleotides were amplified using primers (Sigma): oligo_fwd: 5’-[…] and oligo_rev2: 5’-[…]. The PCR products were cloned into prSTOP4Nsi plasmid using NEB Builder HiFi Assembly (E5520, NEB) following instructions of the manufacturer. The vector pool was used to transform electrocompetent ElectroMAX™ DH5α-E™ cells (11319019, Invitrogen). Plasmid DNA was harvested by MaxiPrep (GeneJet Plasmid Maxiprep Kit (K0491, Thermo Scientific)). DNA was transformed into SS320 phage display electrocompetent cells (60512, Lucigen), following the manufacturer’s protocol. Following electroporation, cells were resuspended in 950 μL recovery media and transferred to 50 mL Falcon tubes. 100 μL 10^11 CFU/mL M13KO7 helper phage (N0315S, NEB) was added, and tubes shaken at 37 °C, 220 RPM, 1 h. 1 mL recovery culture was added to 2YT medium containing +50ug/mL carbenicillin (C9231, Sigma) and 25ug/mL kanamycin (K1377, Sigma), and grown overnight at 37 °C, 220 RPM. Phage was precipitated from culture supernatant by adding 22.5 mL of supernatant to 4.5 mL 20% PEG 8000 (89510, Sigma)/2.5 M NaCl (S9625, Sigma), incubating on ice for 30 min, and centrifuging at 12857 g, 4 °C, 10 min. The phage pellet was resuspended in 1 mL of PBT (PBS (P4417, Sigma), BSA (A7030, Sigma) 0.20%, Tween 20 (P1379, Sigma) 0.05%). Undissolved particulate matter was removed by centrifugation at 15871 g, 4 °C, 10 min. Glycerol (G5516, Sigma, 10% final (v/v) was added, and aliquots stored at −80 °C. A schematic of phage-display library construction is provided in Supplementary Fig. 12.
Phage display screening was performed as described. Experiments were performed in 96-well plates (Greiner Bio-One, 655180). Biotinylated chemokines or complement C5A (1μg, Almac or Protein Foundry) were incubated overnight at 4 °C with shaking at 250 RPM with 5μl streptavidin-coated magnetic beads (Dynabeads™ M-280 Streptavidin, Invitrogen, 11205D) in 100 μl PBS. Chemokine-bound beads were blocked for two hours in 200μl blocking buffer (PBS (phosphate-buffered saline, Sigma, P4417) + 0.2% BSA (bovine serum albumin, Sigma, A7030) with shaking at 250 RPM. Phage library (100μL, 10^10 CFU/mL) was bound to blocked beads for two hours at room temperature with shaking at 250 RPM. Beads were washed 15 times with PT buffer (PBS + 0.05% Tween 20 (Sigma, P1379)) to remove unbound phage then transferred to a fresh plate. Beads were incubated with 100μL phage-resistant Omnimax E. coli (Invitrogen, A10469) at optical density (OD600) 0.6-0.8, shaken at 37 °C for 30 min. Following this 10 µL M13K07 helper phage (NEB, N0315S, final concentration 10^10 CFU/mL) was added and shaken at 37 °C for 45 min. Cells were transferred to 1 mL 2YT medium (at pH7, MP Biomedicals™, 113012031, supplemented with 150 µg/mL carbenicillin (Sigma, C9231) and 75 µg/mL kanamycin (Sigma, K1377) in a 96-deep well block with V-bottom (Corning, CLS3960) and grown with overnight shaking at 37 °C, 200 RPM. Plates were either centrifuged at 2000g (4 °C, 30 min) or transferred to screw cap tubes and pelleted by centrifugation at 4000 g and 4 °C for 15 min. 540 µL of supernatant was transferred to a new 96-deep well plate, 60 µL of 10×PBT (10×PBS + 2% BSA + 0.5% Tween 20) added and stored at 4 °C for subsequent rounds. Phage display was carried out for three rounds. A schematic of phage-display library screening is provided in Supplementary Fig. 12.
We amplified inserts from the input library and from the selected phage population directly from phage by PCR using primers: 5’-[…] and 5’-[…] (Life Technologies). […]

In the case of “EEDDYWAYAPLTCYFT [HD2T6W, HD2 point mutant]”, the “log2E compared to parental HD2, CXnC chemokines” value is given as “significant improvement”. Also, the “log2E compared to parental HD2, all chemokines” value (three selection rounds, 22 chemokines) was “significantly improved”.
For the sequence “EEDDWTAYAPLTCYFT [HD2Y5W, HD2 point mutant]”, the “log2E compared to parental HD2, CXnC chemokines” value is “significant improvement”.
